Laboratory results published in ChEMBL document CHEMBL6120962, “New Mitochondria-Targeted Fisetin Derivative Compromises Mitophagy and Limits Survival of Drug-Induced Senescent Breast Cancer Cells” (J Med Chem, 2024).
The source made the active and inactive calls.

What was measured:
T47D = assay: Antitumor activity against ER-positive human T47D cells xenografted in Danio rerio embryo assessed as increase in p21 mRNA level at 1 to 5 uM administered for 48 hrs by RT-PCR analysis; assay type: functional, cell-based; conditions: dose 1-5 µM
HCC1428 [1] = assay: Induction of mitochondrial dysfunction in human HCC1428 cells assessed as decrease in maximal respiration at 5 uM incubated for 6 hrs by real time analysis; assay type: functional, cell-based
HCC1500 [2] = assay: Induction of senescence in human HCC1500 cells assessed as […] in beta-galactosidase activity at 5 uM incubated for 24 hrs by immunostaining based imaging cytometric analysis; assay type: functional, cell-based
[3] = target: Receptor-interacting serine/threonine-protein kinase 3 (Homo sapiens) (UniProt Q9Y572); assay: Induction of RIP3 phosphorylation in human HCC1428 cells at 1 to 5 uM incubated for 24 hrs by Western blot analysis; assay type: cell-based; conditions: dose 1-5 µM
HCC1500 [4] = assay: Induction of apoptosis in human HCC1500 cells assessed as decrease in Bcl2 level at 1 to 5 uM incubated for 24 hrs by Western blot analysis; assay type: functional, cell-based; conditions: dose 1-5 µM
HCC1428 [5] = assay: Induction of mitochondrial dysfunction in human HCC1428 cells assessed as decrease in spare respiratory capacity at 5 uM incubated for 6 hrs by real time analysis; assay type: functional, cell-based
ZR-75-30 [6] = assay: Induction of apoptosis in tamoxifen-induced senescent human ZR-75-30 cells assessed as phosphatidylserine externalization at 1 to 5 uM incubated for 24 hrs by Annexin V-FITC staining based flow cytometric analysis; assay type: functional, cell-based; conditions: dose 1-5 µM
MCF7 = assay: Antitumor activity against ER-positive human MCF7 cells xenografted in Danio rerio embryo assessed as decrease in tumor size at 1 to 5 uM administered for 48 hrs by imaging analysis; assay type: functional, cell-based; conditions: dose 1-5 µM
MCF-10F [7] = assay: Induction of apoptosis in tamoxifen-induced senescent human MCF-10F cells assessed as decrease in Bcl2 level at 1 to 5 uM incubated for 24 hrs by Western blot analysis; assay type: functional, cell-based; conditions: dose 1-5 µM
ZR-75-30 [8] = assay: Induction of […] in human tamoxifen-induced senescent human ZR-75-30 cells at 1 to 5 uM by incubated for 24 hrs Annexin V-FITC staining based flow cytometric analysis; assay type: functional, cell-based; conditions: dose 1-5 µM
Mitochondrial membrane [9] = assay: Induction of mitochondrial membrane potential depolarization in human ZR-75-30 cells assessed as increase in fraction of depolarized dead cells at 5 uM incubated for 24 hrs by 7-AAD staining based flow cytometric analysis; assay type: cell membranes
HCC1428 [10] = assay: Induction of senescence in human HCC1428 cells assessed as […] in beta-galactosidase activity at 5 uM incubated for 24 hrs by immunostaining based imaging cytometric analysis; assay type: functional, cell-based
HCC1428 [11] = assay: Induction of alternative mitophagy in tamoxifen-induced senescent human HCC1428 cells assessed as increase in Rab9 level at 1 to 5 uM by immunostaining based imaging cytometric analysis; assay type: functional, cell-based; conditions: dose 1-5 µM
Mitochondrial membrane [12] = assay: Induction of mitochondrial membrane potential depolarization in human HCC1428 cells at 1 uM incubated for 24 hrs by 7-AAD staining based flow cytometric analysis; assay type: cell membranes
ZR-75-30 [13] = assay: Induction of AMPK phosphorylation in tamoxifen-induced senescent human ZR-75-30 cells incubated for 24 hrs by immunostaining based imaging cytometric analysis; assay type: cell-based; conditions: filed as activator
ZR-75-30 [14] = assay: Effect on IL-8 level in human ZR-75-30 cells at 5 uM incubated for 24 hrs by immunostaining based imaging cytometric analysis; assay type: functional, cell-based
HCC1428 [15] = assay: Induction of mitochondrial dysfunction in human HCC1428 cells assessed as decrease in ATP production at 5 uM incubated for 6 hrs by real time analysis; assay type: functional, cell-based
HCC1428 [16] = assay: Effect on Bcl-rambo protein level in tamoxifen-induced senescent human HCC1428 cells at 1 to 5 uM incubated for 24 hrs by Western blot analysis; assay type: functional, cell-based; conditions: dose 1-5 µM
HCC1428 [17] = assay: Induction of autophagosome formation in tamoxifen-induced senescent human HCC1428 cells assessed as increase in ubiquitin level at 1 to 5 uM by immunostaining based imaging cytometric analysis; assay type: functional, cell-based; conditions: dose 1-5 µM
HCC1428 [18] = assay: Induction of ubiquitin-dependent mitophagy in tamoxifen-induced senescent human HCC1428 cells assessed as increase in PINK1 level at 5 uM by immunostaining based imaging cytometric analysis; assay type: functional, cell-based
Mitochondrial membrane [19] = assay: Induction of mitochondrial membrane potential depolarization in human HCC1500 cells at 1 uM incubated for 24 hrs by 7-AAD staining based flow cytometric analysis; assay type: cell membranes
HCC1428 [20] = assay: Induction of oxidative stress in tamoxifen-induced senescent human HCC1428 cells assessed as increase in cytosolic SOD1 level at 1 to 5 uM incubated for 24 hrs by MitoSOX red superoxide indicator based fluorescence analysis; assay type: functional, cell-based; conditions: dose 1-5 µM
ZR-75-30 [21] = assay: Induction of oxidative stress in tamoxifen-induced senescent human ZR-75-30 cells assessed as increase in mitochondrial superoxide production at 1 to 5 uM incubated for 24 hrs by MitoSOX red superoxide indicator based fluorescence analysis; assay type: functional, cell-based; conditions: dose 1-5 µM
HCC1428 [22] = assay: Induction of autophagy in tamoxifen-induced senescent human HCC1428 cells assessed as increase in VPS34 level at 1 to 5 uM by immunostaining based imaging cytometric analysis; assay type: functional, cell-based; conditions: dose 1-5 µM
CAMA-1 = assay: Induction of senescence in human CAMA-1 cells assessed as […] in beta-galactosidase activity at 5 uM incubated for 24 hrs by immunostaining based imaging cytometric analysis; assay type: functional, cell-based
HCC1428 [23] = assay: Induction of mitochondrial dysfunction in tamoxifen-induced senescent human HCC1428 cells assessed as decrease in ATP production at 5 uM incubated for 6 hrs by real-time analysis; assay type: functional, cell-based
MCF-10F [24] = assay: Induction of mitochondrial dysfunction in human MCF-10F cells assessed as decrease in ATP production at 5 uM incubated for 6 hrs by real time analysis; assay type: functional, cell-based
Mitochondrial membrane [25] = assay: Induction of mitochondrial membrane potential depolarization in human HCC1428 cells assessed as increase in fraction of depolarized dead cells at 5 uM incubated for 24 hrs by 7-AAD staining based flow cytometric analysis; assay type: cell membranes
[26] = Cytotoxicity against human MCF-10F cells assessed as effect on metabolic activity at 1 to 10 uM incubated for 24 hrs by MTT assay; assay type: toxicity, cell-based; conditions: dose 1-10 µM
MCF-10F [27] = assay: Induction of mitochondrial dysfunction in tamoxifen-induced senescent human MCF-10F cells assessed as decrease in coupling efficiency at 5 uM incubated for 6 hrs by real-time analysis; assay type: functional, cell-based
HCC1500 [28] = assay: Induction of apoptosis in tamoxifen-induced senescent human HCC1500 cells assessed as phosphatidylserine externalization at 1 to 5 uM incubated for 24 hrs by Annexin V-FITC staining based flow cytometric analysis; assay type: functional, cell-based; conditions: dose 1-5 µM
Mitochondrial membrane [29] = assay: Induction of mitochondrial membrane potential depolarization in human MCF-10F cells at 5 uM incubated for 24 hrs by 7-AAD staining based flow cytometric analysis; assay type: cell membranes
HCC1428 [30] = assay: Induction of apoptosis in tamoxifen-induced senescent human HCC1428 cells assessed as decrease in phosphorylated AKT level at 1 to 5 uM incubated for 24 hrs by Western blotting analysis; assay type: functional, cell-based; conditions: dose 1-5 µM
HCC1428 [31] = assay: Effect on phosphorylated to unphosphorylated AKT ratio in tamoxifen-induced senescent human HCC1428 cells assessed as decrease in phosphorylated AKT level at 1 to 5 uM incubated for 24 hrs by Western blotting analysis; assay type: functional, cell-based; conditions: dose 1-5 µM
HCC1500 [32] = assay: Induction of oxidative stress in tamoxifen-induced senescent human HCC1500 cells assessed as increase in mitochondrial superoxide production at 1 to 5 uM incubated for 24 hrs by MitoSOX red superoxide indicator based fluorescence analysis; assay type: functional, cell-based; conditions: dose 1-5 µM
Mitochondrial membrane [33] = assay: Induction of mitochondrial membrane potential depolarization in human CAMA-1 cells at 1 uM incubated for 24 hrs by 7-AAD staining based flow cytometric analysis; assay type: cell membranes

Measured: Activity

Receptor-interacting serine/threonine-protein kinase 3 (Homo sapiens), sequence (Q9Y572 whole entry, looked up): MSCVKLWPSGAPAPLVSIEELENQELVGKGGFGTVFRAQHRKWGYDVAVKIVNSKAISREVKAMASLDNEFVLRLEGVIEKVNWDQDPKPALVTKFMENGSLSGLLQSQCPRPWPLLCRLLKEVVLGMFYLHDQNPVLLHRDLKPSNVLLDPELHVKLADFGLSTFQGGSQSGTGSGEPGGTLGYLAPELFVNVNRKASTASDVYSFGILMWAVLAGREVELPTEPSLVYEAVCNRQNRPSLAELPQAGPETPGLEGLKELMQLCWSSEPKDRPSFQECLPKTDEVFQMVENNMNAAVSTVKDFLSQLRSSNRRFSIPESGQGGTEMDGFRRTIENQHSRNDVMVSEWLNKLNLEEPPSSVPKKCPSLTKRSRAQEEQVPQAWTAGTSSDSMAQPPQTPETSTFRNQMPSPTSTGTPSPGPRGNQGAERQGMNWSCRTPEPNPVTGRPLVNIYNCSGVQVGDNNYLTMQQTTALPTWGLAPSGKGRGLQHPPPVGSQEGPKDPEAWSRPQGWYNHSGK

CC(=O)Oc1ccc2c(=O)c(OCCCC[P+](c3ccccc3)(c3ccccc3)c3ccccc3)c(-c3ccc4c(c3)OC(c3ccccc3)(c3ccccc3)O4)oc2c1.[I-]
inactive: [3] | MCF-10F [7] | HCC1428 [11] | ZR-75-30 [14] | HCC1428 [16] | HCC1428 [17] | MCF-10F [24] | MCF-10F [27] | Mitochondrial membrane [29] | HCC1428 [31]
Non-toxic: [26]
Active; Most Pronounced Effect Observed: HCC1428 [10]
active: all other assays above
